Experimental data: PMC6972920, “Structure-based development of caged dopamine D2/D3 receptor antagonists” (Scientific Reports, 2020)
“Also recorded” adds a separate entry of the source. Like-named read-outs stand apart in the source and are kept apart here. Each block holds one compound with its values, some of them ahead of it.

Experiments:
[1] = target: T1, human adrenergic α2A receptor (Homo sapiens, UniProt P08913); assay: Competition binding, [3H]RX821002, HEK293T membranes
T1 construct: expressed in transfected cells; host or cells: HEK293T cells, transient transfection
T1 sequence (P08913 1-465): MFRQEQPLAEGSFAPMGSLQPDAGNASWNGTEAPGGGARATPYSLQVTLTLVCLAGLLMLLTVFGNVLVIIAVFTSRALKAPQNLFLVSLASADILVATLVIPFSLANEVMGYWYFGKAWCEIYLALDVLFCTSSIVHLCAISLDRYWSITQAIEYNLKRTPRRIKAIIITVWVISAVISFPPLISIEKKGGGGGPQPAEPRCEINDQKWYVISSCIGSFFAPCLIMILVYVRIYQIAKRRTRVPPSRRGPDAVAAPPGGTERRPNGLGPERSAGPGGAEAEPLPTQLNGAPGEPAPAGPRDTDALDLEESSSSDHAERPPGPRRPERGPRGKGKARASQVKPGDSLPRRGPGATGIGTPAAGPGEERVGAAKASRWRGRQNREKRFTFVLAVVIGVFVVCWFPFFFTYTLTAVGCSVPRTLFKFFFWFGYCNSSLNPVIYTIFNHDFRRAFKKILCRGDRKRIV

[2] = target: T2, human dopamine receptor subtype D4.4 (Homo sapiens, UniProt P21917); assay: Radioligand displacement, [3H]spiperone, CHO cell membranes; assay type: binding
T2 sequence (P21917 1-419): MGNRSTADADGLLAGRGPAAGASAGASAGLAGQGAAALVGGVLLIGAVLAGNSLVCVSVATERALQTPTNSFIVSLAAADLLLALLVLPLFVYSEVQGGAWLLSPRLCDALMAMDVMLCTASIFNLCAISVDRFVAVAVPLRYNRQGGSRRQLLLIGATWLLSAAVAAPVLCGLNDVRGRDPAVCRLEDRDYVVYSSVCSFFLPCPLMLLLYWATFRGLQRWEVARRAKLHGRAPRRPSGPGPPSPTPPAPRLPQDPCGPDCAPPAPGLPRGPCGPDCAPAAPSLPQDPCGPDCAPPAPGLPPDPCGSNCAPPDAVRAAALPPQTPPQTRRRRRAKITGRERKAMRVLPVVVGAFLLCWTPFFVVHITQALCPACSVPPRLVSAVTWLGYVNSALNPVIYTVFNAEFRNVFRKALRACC

[3] = Compound stability and photolysis in aqueous buffer monitored by HPLC; assay type: physicochemical; settings: for behaviour upon illumination with λp = 365 nm (in words): aqueous buffer, LED 365 nm, HPLC; for stability in the absence of light (in words): dark, storage and solution, HPLC/LCMS
Protocol: All measurements were performed in aqueous buffer solution. Compound stability and photolysis was monitored by HPLC. […] Excitation of NB- and DMNB-type cages to trigger photolysis is usually performed with light of 300–400 nm. This absorption profile may limit the wavelength range for cage photolysis, as simultaneous excitation of the core pharmacophore may trigger photolytic degradation of the desired product. We performed photolysis experiments using a near UV light-emitting diode (LED) light source with a peak wavelength of λp = 365 nm and a spectrum half width of Δλ = 9 nm.
No unspecific degradation of the pharmacophore was observed, resulting in constant concentration of the desired product. […] The exposure to ambient light for longer time led to partial photolytic degradation. After incubation in aqueous buffer at ambient light for 1 h, we detected remaining 51% and 62% of the initial concentrations of 4 (MG307) and 5, respectively.
For compound characterization, UV/Vis absorption spectra of samples with c = 0.1 mM in methanol were measured on an Analytik Jena Specord 200 Plus spectrometer (λ = 210–400 nm). Irradiation experiments to trigger photolysis were performed in open HPLC glass vials using a LED (λ = 365 nm, 4.5 V, 0.7 A) to irradiate the samples from top. An aqueous buffer solution served as solvent (50 mM Tris, 1 mM EDTA, 50 mM MgCl2, 100 µg/ml bacitracin, 5 µg/ml soybean trypsin inhibitor), with initial sample concentrations of […] and sample volumes of 100 µl. Photolysis was monitored by HPLC as specified before (eluent system 1). […] Unless specified differently, all experiments were performed in triplicate.

[4] = target: human dopamine receptor subtype D2S (Homo sapiens, UniProt P14416); assay: Radioligand displacement, [3H]spiperone, CHO cell membranes; assay type: binding
human dopamine receptor subtype D2S, sequence (P14416 1-414 isoform P14416-2): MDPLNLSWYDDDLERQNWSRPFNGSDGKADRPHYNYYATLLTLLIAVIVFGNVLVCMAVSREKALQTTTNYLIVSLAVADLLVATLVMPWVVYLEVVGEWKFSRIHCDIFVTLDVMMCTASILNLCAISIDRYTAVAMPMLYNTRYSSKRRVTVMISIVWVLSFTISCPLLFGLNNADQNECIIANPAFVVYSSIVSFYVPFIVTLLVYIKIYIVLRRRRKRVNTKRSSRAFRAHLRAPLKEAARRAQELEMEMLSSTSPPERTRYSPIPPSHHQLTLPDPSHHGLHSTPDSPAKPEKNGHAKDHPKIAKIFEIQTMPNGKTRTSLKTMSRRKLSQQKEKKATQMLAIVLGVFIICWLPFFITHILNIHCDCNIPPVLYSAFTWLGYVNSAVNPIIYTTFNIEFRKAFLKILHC

[5] = target: all dopamine receptor subtypes; assay: Radioligand binding, text summary over all dopamine receptor subtypes tested; set-up: species or system human; settings: range over D2L, D2S, D3, D4.4, stated in text; read-out: Ki values towards all dopamine receptor subtypes (range)
[6] = target: human dopamine receptor subtype D2L (Homo sapiens, UniProt P14416); assay: Radioligand displacement, [3H]spiperone, CHO cell membranes; assay type: binding
human dopamine receptor subtype D2L, sequence (P14416 whole entry): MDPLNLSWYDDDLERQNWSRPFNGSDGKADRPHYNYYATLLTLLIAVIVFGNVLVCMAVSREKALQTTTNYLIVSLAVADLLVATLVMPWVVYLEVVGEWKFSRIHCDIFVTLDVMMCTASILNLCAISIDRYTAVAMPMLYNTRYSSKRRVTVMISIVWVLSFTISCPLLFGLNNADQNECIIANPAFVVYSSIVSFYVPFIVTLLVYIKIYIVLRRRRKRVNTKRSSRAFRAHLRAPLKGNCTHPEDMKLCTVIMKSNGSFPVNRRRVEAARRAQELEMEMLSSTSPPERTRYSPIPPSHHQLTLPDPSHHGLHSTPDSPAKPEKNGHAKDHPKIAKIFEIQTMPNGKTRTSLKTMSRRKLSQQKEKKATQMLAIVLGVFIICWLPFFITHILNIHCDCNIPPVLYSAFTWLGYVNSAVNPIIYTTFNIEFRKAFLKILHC

[7] = target: human dopamine receptor subtype D3 (Homo sapiens, UniProt P35462); assay: as above; assay type: binding; settings: mean ± SEM of 4-9 experiments, compounds 1, 2, 3: ± SD of two experiments
human dopamine receptor subtype D3, sequence (P35462 whole entry): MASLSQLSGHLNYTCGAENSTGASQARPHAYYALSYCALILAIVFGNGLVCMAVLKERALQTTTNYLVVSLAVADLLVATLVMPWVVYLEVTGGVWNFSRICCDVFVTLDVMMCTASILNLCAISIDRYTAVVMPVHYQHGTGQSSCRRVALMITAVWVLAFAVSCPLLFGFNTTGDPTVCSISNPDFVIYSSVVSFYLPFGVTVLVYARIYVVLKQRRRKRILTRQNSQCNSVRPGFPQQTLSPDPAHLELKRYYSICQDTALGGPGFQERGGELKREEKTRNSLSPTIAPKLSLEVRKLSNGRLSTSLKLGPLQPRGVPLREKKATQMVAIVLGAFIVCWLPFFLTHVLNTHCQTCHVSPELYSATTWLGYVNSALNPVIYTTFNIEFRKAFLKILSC

[8] = target: T3, dopamine D2S receptor co-expressed with hybrid Gαqi in HEK293T cells (Homo sapiens, UniProt P14416); assay: IP accumulation assay (IP-One HTRF), inhibition of 10 nM quinpirole; assay type: cell-based
T3 construct: expressed in transfected cells; host or cells: HEK-293T cells, transient co-transfection
T3 sequence (P14416 1-414 isoform P14416-2): as the sequence (P14416 1-414 isoform P14416-2) above

[9] = target: T4, D2S receptor (HEK293T cells co-transfected with D2S and Gαqi) (Homo sapiens, UniProt P14416); assay: Illumination experiment: test compound solution irradiated at 365 nm before addition to cells, quinpirole stimulated IP accumulation; assay type: cell-based; settings: controls; 10 nM quinpirole
T4 construct: expressed in transfected cells; host or cells: HEK-293T cells, transient co-transfection
T4 sequence (P14416 1-414 isoform P14416-2): as above
Text: […]. Mean curves ± SEM of 4–9 individual curves each done in triplicates. […]. Mean curves from 3–4 experiments each done in duplicate. […]. While 4 (MG307) (green bars) is completely released after 10 sec, the uncaging of 5 (red bars) needs 20 sec. […]. Mean bars ± SEM derived from 3–11 individual experiments each done in quintuplicates. Irradiation with a solution of test compound before addition to the cellular test system. […]. Means ± SEM from 6 experiments in quintuplicates.
[…]. Actually, we observed an onset of a strong inverse agonist effect on quinpirole-induced IP accumulation after irradiation of the nitrobenzyl-caged compound 4 (MG307). […] […]. […] To complement uncaging of the test compounds by irradiation of the test compounds before addition to receptor by a biologically more significant experiment, we investigated whether uncaging can also be accomplished directly in the cellular system. […] In fact, quinpirole-promoted IP accumulation was substantially attenuated after irradiation for 10 or 20 sec. […] […]. […] […].
HEK293T cells were transiently co-transfected with D2S and Gαqi. Solutions of the test compounds were irradiated at λ = 365 nm using the same LED as for the photochemistry experiments (see above) for 2, 5, 10 or 20 sec and the test compound was added to the cell system immediately after illumination. […]. Accumulation of IP was determined as described above. […]. Basal activity (buffer) was set as 0%. As a control, quinpirole was irradiated for 20 sec without observing any difference to the effect of the untreated analog. […]. All irradiation experiments were carried out in the dark or under dim light.

[10] = target: T3, dopamine D2S receptor co-expressed with hybrid Gαqi in HEK293T cells; assay: IP accumulation assay (IP-One HTRF), agonist / inverse agonist effect; assay type: cell-based
[11] = target: T5, human serotonin 5-HT2A receptor (Homo sapiens, UniProt P28223); assay: Competition binding, [3H]ketanserin, HEK293T membranes; settings: ± SD of two experiments
T5 construct: expressed in transfected cells; host or cells: HEK293T cells, transient transfection
T5 sequence (P28223 whole entry): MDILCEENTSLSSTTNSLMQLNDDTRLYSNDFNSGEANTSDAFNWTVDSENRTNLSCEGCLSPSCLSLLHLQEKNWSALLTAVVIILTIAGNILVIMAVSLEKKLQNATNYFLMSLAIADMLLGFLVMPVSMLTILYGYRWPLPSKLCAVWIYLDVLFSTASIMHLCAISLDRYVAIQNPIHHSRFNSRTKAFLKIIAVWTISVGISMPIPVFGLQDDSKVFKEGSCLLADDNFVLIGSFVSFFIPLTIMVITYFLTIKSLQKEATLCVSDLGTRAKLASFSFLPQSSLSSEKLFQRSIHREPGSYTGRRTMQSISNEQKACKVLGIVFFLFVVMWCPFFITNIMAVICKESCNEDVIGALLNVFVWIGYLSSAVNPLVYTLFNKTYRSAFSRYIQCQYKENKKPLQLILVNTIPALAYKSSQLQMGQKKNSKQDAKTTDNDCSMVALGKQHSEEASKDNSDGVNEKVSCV

[12] = target: T6, human dopamine D1 receptor (Homo sapiens, UniProt P21728); assay: Competition binding, [3H]SCH23390, HEK293T membranes
T6 construct: expressed in transfected cells; host or cells: HEK293T cells, transient transfection
T6 sequence (P21728 whole entry): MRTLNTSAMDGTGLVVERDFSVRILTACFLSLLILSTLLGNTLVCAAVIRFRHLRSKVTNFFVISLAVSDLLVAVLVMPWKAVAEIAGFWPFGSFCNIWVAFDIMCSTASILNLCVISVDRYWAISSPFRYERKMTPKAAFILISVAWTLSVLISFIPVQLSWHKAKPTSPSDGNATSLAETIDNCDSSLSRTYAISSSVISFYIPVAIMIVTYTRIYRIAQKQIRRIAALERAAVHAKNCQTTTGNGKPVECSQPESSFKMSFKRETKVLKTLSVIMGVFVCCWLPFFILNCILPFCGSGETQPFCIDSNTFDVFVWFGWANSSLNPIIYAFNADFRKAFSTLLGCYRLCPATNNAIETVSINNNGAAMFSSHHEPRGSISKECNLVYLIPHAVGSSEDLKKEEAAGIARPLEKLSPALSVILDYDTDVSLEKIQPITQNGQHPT

[13] = target: T7, human adrenergic α1A receptor (Homo sapiens, UniProt P35348); assay: Competition binding, [3H]prazosin, HEK293T membranes; settings: ± SD of two experiments
T7 construct: expressed in transfected cells; host or cells: HEK293T cells, transient transfection
T7 sequence (P35348 1-466): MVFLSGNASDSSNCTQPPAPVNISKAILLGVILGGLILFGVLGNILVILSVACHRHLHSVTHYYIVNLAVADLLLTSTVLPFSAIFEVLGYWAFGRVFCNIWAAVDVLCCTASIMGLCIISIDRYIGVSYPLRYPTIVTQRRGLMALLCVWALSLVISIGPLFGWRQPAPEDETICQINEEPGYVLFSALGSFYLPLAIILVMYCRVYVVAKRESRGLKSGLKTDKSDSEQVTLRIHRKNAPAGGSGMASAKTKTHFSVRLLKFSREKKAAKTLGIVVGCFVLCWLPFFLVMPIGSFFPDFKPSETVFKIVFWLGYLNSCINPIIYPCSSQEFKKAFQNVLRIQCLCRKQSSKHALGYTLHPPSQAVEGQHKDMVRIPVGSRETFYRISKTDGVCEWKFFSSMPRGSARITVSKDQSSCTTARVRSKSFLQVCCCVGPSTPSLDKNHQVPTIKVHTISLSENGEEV

D2 and D3 receptors = assay: Radioligand binding, summary over D2 and D3 subtypes; set-up: species or system human; settings: range over D2L, D2S, D3, stated in text
[14] = target: T8, human adrenergic β2 receptor (Homo sapiens, UniProt P07550); assay: Competition binding, [3H]CGP12177, HEK293T membranes; settings: ± SD of two experiments
T8 construct: expressed in transfected cells; host or cells: HEK293T cells, transient transfection
T8 sequence (P07550 whole entry): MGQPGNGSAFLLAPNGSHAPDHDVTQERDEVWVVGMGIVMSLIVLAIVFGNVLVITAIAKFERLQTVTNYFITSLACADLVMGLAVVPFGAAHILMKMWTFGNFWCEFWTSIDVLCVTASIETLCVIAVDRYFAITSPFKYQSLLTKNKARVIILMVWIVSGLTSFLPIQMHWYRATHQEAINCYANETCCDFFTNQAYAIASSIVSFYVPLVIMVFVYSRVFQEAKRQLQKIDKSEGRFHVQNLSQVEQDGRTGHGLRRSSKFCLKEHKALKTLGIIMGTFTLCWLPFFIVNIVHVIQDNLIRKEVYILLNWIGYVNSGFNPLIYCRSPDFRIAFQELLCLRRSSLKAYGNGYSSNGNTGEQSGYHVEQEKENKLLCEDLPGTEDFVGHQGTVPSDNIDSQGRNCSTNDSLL

[15] = target: T9, human dopamine D5 receptor (Homo sapiens, UniProt P21918); assay: Competition binding, [3H]SCH23390, HEK293T membranes
T9 construct: expressed in transfected cells; host or cells: HEK293T cells, transient transfection
T9 sequence (P21918 whole entry): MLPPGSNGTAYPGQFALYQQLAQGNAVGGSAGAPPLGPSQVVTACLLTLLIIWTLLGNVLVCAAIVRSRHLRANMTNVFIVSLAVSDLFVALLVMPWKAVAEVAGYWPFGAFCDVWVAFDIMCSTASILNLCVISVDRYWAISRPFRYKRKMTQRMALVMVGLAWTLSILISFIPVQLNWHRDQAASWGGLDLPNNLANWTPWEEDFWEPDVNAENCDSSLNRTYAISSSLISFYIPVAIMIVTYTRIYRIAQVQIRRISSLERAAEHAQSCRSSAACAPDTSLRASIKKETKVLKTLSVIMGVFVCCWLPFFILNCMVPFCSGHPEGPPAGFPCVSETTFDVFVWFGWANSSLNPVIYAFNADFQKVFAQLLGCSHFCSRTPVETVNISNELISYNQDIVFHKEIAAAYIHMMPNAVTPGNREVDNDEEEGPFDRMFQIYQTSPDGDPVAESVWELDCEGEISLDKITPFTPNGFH

[16] = target: T10, human serotonin 5-HT1A receptor (Homo sapiens, UniProt P08908); assay: Competition binding, [3H]WAY600135, HEK293T membranes; settings: ± SD of two experiments
T10 construct: expressed in transfected cells; host or cells: HEK293T cells, transient transfection
T10 sequence (P08908 1-422): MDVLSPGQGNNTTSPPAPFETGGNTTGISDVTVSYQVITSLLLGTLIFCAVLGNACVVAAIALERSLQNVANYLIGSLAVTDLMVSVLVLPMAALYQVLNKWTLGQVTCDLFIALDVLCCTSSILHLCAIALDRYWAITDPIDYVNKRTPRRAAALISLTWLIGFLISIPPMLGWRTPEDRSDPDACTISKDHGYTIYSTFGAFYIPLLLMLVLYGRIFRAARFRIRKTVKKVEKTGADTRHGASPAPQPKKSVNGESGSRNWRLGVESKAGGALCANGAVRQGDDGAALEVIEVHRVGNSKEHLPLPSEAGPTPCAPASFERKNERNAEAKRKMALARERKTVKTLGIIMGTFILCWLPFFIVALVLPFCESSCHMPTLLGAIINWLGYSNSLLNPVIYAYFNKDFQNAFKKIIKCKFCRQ

[17] = [3H]spiperone, mean ± SEM of 4-9 experiments, compounds 1, 2, 3: ± SD of two experiments, read-out: Ki value D4.4
[18] = [3H]spiperone, mean ± SEM of 4-9 experiments, compounds 1, 2, 3: ± SD of two experiments, read-out: Ki value D2S
[19] = [3H]spiperone, mean ± SEM of 4-9 experiments, compounds 1, 2, 3: ± SD of two experiments, read-out: Ki value D2L

Kd ([1]; HEK293T membranes, read-out: KD of radioligand for α2A): 0.29 nM
Structure (SMILES): COC1(C2=NCCN2)COc2ccccc2O1 (centres unmarked) [[^3H]RX801002]

Ki [2, 17]: 2800 ± 1200 nM
Structure (SMILES): CCc1cc(Cl)c(OC)c(C(=O)NC[C@@H]2CCCN2CC)c1OCc1ccccc1[N+](=O)[O-] [compound 1]
behaviour upon illumination with λp = 365 nm (in words) [3]: complete photolysis after seconds of irradiation
stability in the absence of light (in words) [3]: not fully stable and slowly decomposed to liberate eticlopride even in the absence of light

behaviour upon illumination with λp = 365 nm (in words) [3]: Rapid photolytic degradation
Structure (SMILES): CCc1cc(Cl)c(OC)c(C(=O)NC[C@@H]2CCCN2CC)c1OCc1cc(OC)c(OC)cc1[N+](=O)[O-] [compound 2]
stability in the absence of light (in words) [3]: not fully stable and slowly decomposed to liberate eticlopride even in the absence of light

Ki [4, 18]: 6200 ± 3500 nM
Ki [5]: 4800 to 22000 nM
Ki [6, 19]: 4800 ± 3500 nM
Ki [7]: 5600 ± 5400 nM
Structure (SMILES): CCc1cc(Cl)c(OC)c(C(=O)NC[C@@H]2CCCN2CC)c1OCc1ccccc1 [compound 3]

Ki [2, 17]: 7700 ± 1100 nM
Emax ([8]; HEK-293T, in presence of 10 nM quinpirole, relative to quinpirole (100%) and buffer (0%), read-out: inhibitory effect Emax): -17 ± 9.8%
IC50 ([8]; blocking of the agonist effect of 10 nM quinpirole, ± SEM, 4-6 experiments, read-out: inhibitory effect IC50): 5500 ± 2900 nM
Ki [4, 18]: 510 ± 120 nM
Ki [6, 19]: 1300 ± 250 nM
Ki [7]: 480 ± 120 nM
Emax ([10]; HEK-293T, relative to full effect of quinpirole (100%) and buffer (0%)): -22 ± 1.8%
EC50 ([10]; IP accumulation, ± SEM, 3-8 experiments, negative Emax = inverse agonist effect): 480 ± 310 nM
Structure (SMILES): CCc1ccc(OC)c(C(=O)NC[C@@H]2CCCN2CC)c1OCc1ccccc1 [compound 6]
effect of irradiation at 365 nm for 20 sec on the compound's effect on IP accumulation (in words) [9]: does not affect; also recorded: no significant effect
functional properties in IP accumulation assay (in words) ([10]; D2S receptors): inverse agonist properties were observed as well, but potency was low

Ki [11]: 220 ± 23 nM
Ki [2]: 120 ± 19 nM
Ki [12]: 23000 ± 5800 nM
Ki [4]: 0.28 ± 0.03 nM
Ki [6]: 0.25 ± 0.062 nM
Ki [13]: 81 ± 2.1 nM
Ki (D2 and D3 receptors): 0.21 to 0.28 nM
Ki ([1]; [3H]RX821002, ± SD of two experiments): 66 ± 19 nM
Ki [14]: 4900 ± 210 nM
Ki [15]: 46000 ± 1100 nM
Ki [16]: 570 ± 250 nM
Structure (SMILES): CCc1cc(Cl)c(OC)c(C(=O)NC[C@@H]2CCCN2CC)c1O [eticlopride]
behaviour upon illumination with λp = 365 nm (in words) [3]: fast decomposition rate towards light with λp = 365 nm
